Data taken from patent US20060073121A1, “Spray formulation for pungency enhancement in Capsicum” (priority 2004, published 2006).

System: Capsicum frutescens Mill
Test: Spray of abiotic elicitors to flowers of field-grown plants; HPLC of phenyl propanoid intermediates and capsaicinoids in harvested fruits
Format: in vivo
From the text: The seedlings of Capsicum frutescens Mill were raised in soil bed. The seeds of C. frutescens were collected from wild from BR Hills, […]. The 2 months old seedling plants were transplanted to the soil and grown under controlled conditions to avoid cross-pollination after the onset of flowering. The plants were established well 2 months after transplantation and started to flower by 90 days with proper agronomic practices with regard to irrigation, fertilizer application, weeding and care from major pests and diseases. The abiotic elicitor (Methyl Jasmonate) was purchased from Duchefa Pvt.LTD. Methyl Jasmonate stock solution was prepared and later used at different concentrations (1 mM, 2.5 mM and 5 mM) for spraying to the whole plant containing flowers, completely opened flowers, and braches containing flowers. The flowers of C. frutescens were sprayed with water, which was taken as control. […] The extracted samples were centrifuged at 4000 rpm for 10 minutes. The samples were subjected to High Performance Liquid Chromatography for quantification of phenyl proponoid intermediates and major Capsaicinoids. […] The detection was at 236 nm and flow rate was maintained at 1 ml/min. […] The reagent used was of HPLC grade. The intermediates of phenyl proponoid pathway (Phenylalanine, Cinnamic acid, Coumaric acid, Caffeic acid, Ferulic acid and Vanillylamine) and two major Capsaicinoids (Capsaicin and Dihydrocapsaicin) were purchased from Sigma Co. […] Standard deviation of samples was calculated according to Tukey's method. The seedlings of Capsicum frutescens Mill were raised in soil bed. The seeds of C. frutescens were collected from BR. Hills, […]. The 2 months old seedling plants were transplanted to the soil and grown under controlled conditions to avoid cross-pollination after the onset of flowering. The plants were established well two months after transplantation and started to flower by 90 days with proper agronomic practices with regard to irrigation, fertilizer application, weeding and care from major pests and diseases. […] USA. […] The flowers of C. frutescens were sprayed with water, which was taken as control. […] The extracted samples were centrifuged at 4000 rpm for 10 minutes. The samples were subjected to High Performance Liquid Chromatography for quantification of phenyl proponoid intermediates and major Capsaicinoids. […] The detection was at 236nm and flow rate was maintained at 1 ml/min. […] The reagent used was of HPLC grade. The intermediates of phenyl propanoid pathway (Phenylalanine, Cinnamic acid, Coumaric acid, Caffeic acid, Ferulic acid and Vanillylamine) and two major Capsaicinoids (Capsaicin and Dihydrocapsaicin) were purchased from Sigma Co. […] Standard deviation of samples was calculated according to Tukey's method.

[1] = fruits 25 days after anthesis, 1 mM sprayed
[2] = fruits 25 days after anthesis, 2.5 mM sprayed
[3] = fruits 25 days after anthesis, 5 mM sprayed
[4] = fruits 30 days after anthesis, 1 mM sprayed
[5] = fruits 30 days after anthesis, 2.5 mM sprayed
[6] = fruits 30 days after anthesis, 5 mM sprayed
[7] = fruits 35 days after anthesis, 1 mM sprayed
[8] = fruits 35 days after anthesis, 2.5 mM sprayed
[9] = fruits 35 days after anthesis, 5 mM sprayed
[10] = fruits 40 days after anthesis, 1 mM sprayed
[11] = fruits 40 days after anthesis, 2.5 mM sprayed
[12] = fruits 40 days after anthesis, 5 mM sprayed

Question: With `O=C([O-])c1ccccc1O.[Na+]` [Salicylic Acid sodium salt, Salicylic acid sodium salt] as the compound, how does the “Caffeic Acid level” value [1] read?
Answer: 21 ± 1.0 µM

Question: What about the Capsaicin level [1] of the same compound?
Answer: 16 ± 08 µM

Question: What about the “Cinnamic Acid level” value [1] of the same compound?
Answer: 3.4 ± 0.9 µM

Question: And the “Coumaric Acid level” value [1]?
Answer: 12.0 ± 1.2 µM

Question: What about the Dihydrocapsaicin level [1] of the same compound?
Answer: 5 ± 0.7 µM

Question: What about the “Ferulic Acid level” value [1] of the same compound?
Answer: 31 ± 1.2 µM

Question: What about the Phenylalanine level [1] of the same compound?
Answer: 378 ± 8.2 µM

Question: What about the Vanillylamine level [1] of the same compound?
Answer: 48 ± 1.4 µM

Question: And the “Caffeic Acid level” value [2]?
Answer: 25 ± 1.1 µM

Question: And the Capsaicin level [2]?
Answer: 17 ± 1.1 µM

Question: What about the “Cinnamic Acid level” value [2] of the same compound?
Answer: 3.9 ± 0.7 µM

Question: And the “Coumaric Acid level” value [2]?
Answer: 15 ± 1.4 µM

Question: And the Dihydrocapsaicin level [2]?
Answer: 5.5 ± 0.6 µM

Question: And the “Ferulic Acid level” value [2]?
Answer: 32 ± 1.4 µM

Question: What about the Phenylalanine level [2] of the same compound?
Answer: 389 ± 9.2 µM

Question: And the Vanillylamine level [2]?
Answer: 49 ± 1.8 µM

Question: And the “Caffeic Acid level” value [3]?
Answer: 28 ± 1.2 µM

Question: What about the Capsaicin level [3] of the same compound?
Answer: 16 ± 1.1 µM

Question: What about the “Cinnamic Acid level” value [3] of the same compound?
Answer: 3.5 ± 0.6 µM

Question: What about the “Coumaric Acid level” value [3] of the same compound?
Answer: 14 ± 1.2 µM

Question: And the Dihydrocapsaicin level [3]?
Answer: 6 ± 0.7 µM

Question: And the “Ferulic Acid level” value [3]?
Answer: 34 ± 1.9 µM

Question: And the Phenylalanine level [3]?
Answer: 379 ± 10.0 µM

Question: And the Vanillylamine level [3]?
Answer: 47 ± 2.1 µM

Question: What about the “Caffeic Acid level” value [4] of the same compound?
Answer: 28 ± 1.0 µM

Question: And the Capsaicin level [4]?
Answer: 35 ± 2.4 µM

Question: And the “Cinnamic Acid level” value [4]?
Answer: 4.1 ± 1.1 µM

Question: And the “Coumaric Acid level” value [4]?
Answer: 12 ± 1.1 µM

Question: What about the Dihydrocapsaicin level [4] of the same compound?
Answer: 11 ± 1.1 µM

Question: What about the “Ferulic Acid level” value [4] of the same compound?
Answer: 35 ± 4.1 µM

Question: And the Phenylalanine level [4]?
Answer: 514 ± 12.2 µM

Question: What about the Vanillylamine level [4] of the same compound?
Answer: 60 ± 1.9 µM

Question: What about the “Caffeic Acid level” value [5] of the same compound?
Answer: 30 ± 1.5 µM

Question: What about the Capsaicin level [5] of the same compound?
Answer: 44 ± 1.1 µM

Question: And the “Cinnamic Acid level” value [5]?
Answer: 4.9 ± 1.5 µM

Question: And the “Coumaric Acid level” value [5]?
Answer: 18 ± 1.2 µM

Question: And the Dihydrocapsaicin level [5]?
Answer: 12 ± 0.1 µM

Question: And the “Ferulic Acid level” value [5]?
Answer: 35 ± 3.9 µM

Question: What about the Phenylalanine level [5] of the same compound?
Answer: 519 ± 8.7 µM

Question: And the Vanillylamine level [5]?
Answer: 67 ± 2.1 µM

Question: And the “Caffeic Acid level” value [6]?
Answer: 32 ± 1.1 µM

Question: And the Capsaicin level [6]?
Answer: 42 ± 2.8 µM

Question: What about the “Cinnamic Acid level” value [6] of the same compound?
Answer: 4.5 ± 1.1 µM

Question: And the “Coumaric Acid level” value [6]?
Answer: 15 ± 1.2 µM

Question: And the Dihydrocapsaicin level [6]?
Answer: 10 ± 0.6 µM

Question: What about the “Ferulic Acid level” value [6] of the same compound?
Answer: 38 ± 3.4 µM

Question: What about the Phenylalanine level [6] of the same compound?
Answer: 528 ± 7.4 µM

Question: And the Vanillylamine level [6]?
Answer: 65 ± 4.2 µM

Question: What about the “Caffeic Acid level” value [7] of the same compound?
Answer: 29 ± 1.0 µM

Question: What about the Capsaicin level [7] of the same compound?
Answer: 38 ± 2.8 µM

Question: What about the “Cinnamic Acid level” value [7] of the same compound?
Answer: 18 ± 1.0 µM

Question: And the “Coumaric Acid level” value [7]?
Answer: 24 ± 1.2 µM

Question: And the Dihydrocapsaicin level [7]?
Answer: 15 ± 1.0 µM

Question: And the “Ferulic Acid level” value [7]?
Answer: 64 ± 5 µM

Question: What about the Phenylalanine level [7] of the same compound?
Answer: 778 ± 5.9 µM

Question: What about the Vanillylamine level [7] of the same compound?
Answer: 68 ± 1.9 µM

Question: And the “Caffeic Acid level” value [8]?
Answer: 42 ± 1.1 µM

Question: And the “Cinnamic Acid level” value [8]?
Answer: 25 ± 1.1 µM

Question: And the “Coumaric Acid level” value [8]?
Answer: 30 ± 1.5 µM

Question: And the Dihydrocapsaicin level [8]?
Answer: 16 ± 1.0 µM

Question: And the “Ferulic Acid level” value [8]?
Answer: 69 ± 6.8 µM

Question: And the Phenylalanine level [8]?
Answer: 789 ± 11 µM

Question: And the Vanillylamine level [8]?
Answer: 77 ± 2.8 µM

Question: What about the Capsaicin level (fruits 35 days after anthesis, 2.5 mM sprayed, sodium salt) of the same compound?
Answer: 39 ± 2.8 µM

Question: What about the “Caffeic Acid level” value [9] of the same compound?
Answer: 32 ± 1.0 µM

Question: And the Capsaicin level [9]?
Answer: 36 ± 2.1 µM

Question: What about the “Cinnamic Acid level” value [9] of the same compound?
Answer: 24 ± 1.1 µM

Question: And the “Coumaric Acid level” value [9]?
Answer: 21 ± 1.1 µM

Question: What about the Dihydrocapsaicin level [9] of the same compound?
Answer: 15 ± 0.9 µM

Question: What about the “Ferulic Acid level” value [9] of the same compound?
Answer: 65 ± 4.5 µM

Question: And the Phenylalanine level [9]?
Answer: 891 ± 8.9 µM

Question: What about the Vanillylamine level [9] of the same compound?
Answer: 73 ± 3.6 µM

Question: And the “Caffeic Acid level” value [10]?
Answer: 29 ± 1.1 µM

Question: What about the Capsaicin level [10] of the same compound?
Answer: 31 ± 2.1 µM

Question: And the “Cinnamic Acid level” value [10]?
Answer: 15 ± 1.0 µM

Question: And the “Coumaric Acid level” value [10]?
Answer: 21 ± 1.1 µM

Question: And the Dihydrocapsaicin level [10]?
Answer: 14 ± 1.0 µM

Question: What about the “Ferulic Acid level” value [10] of the same compound?
Answer: 62 ± 5 µM

Question: What about the Phenylalanine level [10] of the same compound?
Answer: 532 ± 8.4 µM

Question: And the Vanillylamine level [10]?
Answer: 64 ± 5.8 µM

Question: What about the “Caffeic Acid level” value [11] of the same compound?
Answer: 35 ± 1.0 µM

Question: And the Capsaicin level [11]?
Answer: 34 ± 2.8 µM

Question: What about the “Cinnamic Acid level” value [11] of the same compound?
Answer: 23 ± 1.1 µM

Question: What about the “Coumaric Acid level” value [11] of the same compound?
Answer: 29 ± 1.4 µM

Question: What about the Dihydrocapsaicin level [11] of the same compound?
Answer: 15 ± 1.0 µM

Question: And the “Ferulic Acid level” value [11]?
Answer: 65 ± 6 µM

Question: What about the Phenylalanine level [11] of the same compound?
Answer: 549 ± 9.2 µM

Question: What about the Vanillylamine level [11] of the same compound?
Answer: 68 ± 4.8 µM

Question: And the “Caffeic Acid level” value [12]?
Answer: 34 ± 1.1 µM

Question: And the Capsaicin level [12]?
Answer: 38 ± 3.4 µM

Question: And the “Cinnamic Acid level” value [12]?
Answer: 20 ± 1.0 µM

Question: What about the “Coumaric Acid level” value [12] of the same compound?
Answer: 24 ± 1.5 µM

Question: What about the Dihydrocapsaicin level [12] of the same compound?
Answer: 14 ± 1.1 µM

Question: What about the “Ferulic Acid level” value [12] of the same compound?
Answer: 67 ± 6 µM

Question: What about the Phenylalanine level [12] of the same compound?
Answer: 547 ± 7.4 µM

Question: What about the Vanillylamine level [12] of the same compound?
Answer: 65 ± 6.1 µM
